Reference: patent publication US6858402B2 (The Regents of the University of California, priority 1996, dated 2005)

Legend:
[1] = test system: soluble p75 and p55 TNF-R; conditions: Crowe et al. (1995); Mullberg et al. (1995); cited from earlier work
[2] = Bauditz et al. (1997); cited from earlier work
TNF [3] = conditions: Shohami et al. (1997); cited from earlier work
TNF [4] = conditions: in vitro and in vivo; Solorzano et al. (1997); cited from earlier work
[5] = test system: human peripheral blood monocytes; test: Induction of TRRE by PMA stimulation, TRRE assay of supernatant; format: cell-based; conditions: for TRRE Activity (U): Human Monocyte
Procedure: (§1) C75R cells and COS-1 cells were seeded into 24-well culture plates at a density of 2.5×10^5 cells/ml/well and incubated overnight (for 12 to 16 hours) in 5% CO2 at 37° C. […] (corresponding to A and C mentioned below, respectively). Simultaneously, C75R cells in 24-well plates were also incubated with 300 μl of fresh medium or buffer (corresponding to B mentioned below). The supernatants were collected, centrifuged, and then assayed for the concentration of soluble p75 TNF-R by ELISA as described above.
Mononuclear cells were harvested at the interface of an isotonic Ficoll cushion (specific gravity, 1.05) from a Leukopac obtained from normal healthy volunteers according to the manufacturer's instructions (Sigma). Then monocytes were isolated by counterflow centrifugal elutriation with a Beckman JE-5.0 system. On average, the purity of the monocyte fraction was over 95%, as judged by morphologic examination and nonspecific esterase staining, and viability was over 98% as assessed by the trypan blue dye exclusion test.
(§2) The stimulated cells were washed with serum-free medium and resuspended in the same volume of PMA-free medium with 1% FCS for 2 more hours in 5% CO2 at 37° C.

THP-1 cells [6] = test: as above; format: cell-based, human
Procedure: THP-1 cells growing in logarithmic phase were collected and resuspended to 1×10^6 cells/ml of RPMI-1640 supplemented with 1% FCS and incubated with 10^−6 M PMA for 30 min in 5% CO2 at 37° C. The cells were collected and washed once with serum-free medium to remove PMA and resuspended in the same volume of RPMI-1640 with 1% FCS. After 2 hours incubation in 5% CO2 at 37° C., the cell suspension was collected, centrifuged, and the cell-free supernatant was collected as the TRRE-containing sample.
Briefly, C75R and COS-1 cells were seeded at 2.5×10^5 cells/ml/well in a 24-well culture plate and incubated in 5% CO2 at 37° C. for 12 to 16 hours. […] Simultaneously, C75R was incubated with 300 μl of fresh medium or buffer. At the end of the incubation period, the samples from each well were collected and the levels of soluble p75 TNF-R were measured by ELISA.
as §1, §2
(§3) Suspension cell lines including THP-1, U-937, HL-60, Raji and K-562 at a density of 1×10^6 cells/ml were stimulated in RPMI-1640/1% FCS-with 10^−6 M PMA for 30 min in 5% CO2 at 37° C. After pelleting the cells and discarding the supernatants, the cells were washed once with serum-free medium and then incubated for 2 more hours at the same density of 1×10^6 cells/ml in PMA-free RPMI-1640/1% FCS. Adherent cell lines including ME-180 and MRC-5 were seeded in 100 mm cell culture plates with RPMI-1640/10% FCS-at a density of 6×10^6 cells/10 ml/plate in 5% CO2 at 37° C. overnight. After discarding the medium from the 100 mm plates, these adherent cells were stimulated in 6 ml of RPMI-1640/1% FCS with 10^−6 M PMA (at an approximate density of 1×10^6 cells/ml) for 30 min in 5% CO2 at 37° C. Following washing of the plates with serum-free medium 3 times, the cells were incubated for 2 more hours in 6 ml of PMA-free RPMI-1640/1% FCS.
THP-1 cells were stimulated with 10−6 M PMA in RPMI-1640 with 1% FCS for 30 min.
THP-1 cells at a density of 1×10^6 cells/ml were stimulated in 1% FCS-contained RPMI-1640 with 10^−6 M PMA for 30 min at 37° C. in 5% CO2. After washing the cells with serum-free medium to remove PMA, the cells were incubated in the same volume of 1% FCS-contained RPMI-1640 without PMA for 2 hours at 37° C. in 5% CO2. Then the cells were centrifuged down and the supernatant was collected for TRRE assay. These pelleted cells were again resuspended in 1% FCS-contained RPMI-1640 with or without 10^−6 M PMA and incubated for 30 min at 37° C. in 5% CO2. After washing the cells with serum-free medium to remove PMA, the cells, stimulated or non-stimulated by PMA, were incubated in the same volume of 1% FCS-contained RPMI-1640 without PMA for 2 and 4 hours each at 37° C. in 5% CO2.

THP-1 cells [7] = test: as above; format: cell-based, human; conditions: for TRRE Activity (U/ml): THP-1, 10^−6 M PMA 30 min
MRC-5 = test: as above; format: cell-based, human; conditions: MRC-5, 10^−6 M PMA
Description: (§4) THP-1 (a human monocytic leukemia cell line), U-937 (a human histiocytic lymphoma cell line), HL-60 (a human promyelocytic leukemia cell line), Raji (a human Burkitt lymphoma cell line) and K-562 (a human myelogenous leukemia cell line), which grow in suspension, and ME-180 (a human epidermoid carcinoma cell line) and MRC-5 (a human lung fibroblast cell line), which grow adherently, were purchased from American Type Culture Collection (Rockville, Md.). These cell lines were passed twice a week in RPMI-1640/10% heat-inactivated FCS.
as §3

K-562 = test: as above; format: cell-based, human; conditions: K-562, 10^−6 M PMA
Description: as §4, §3

ME-180 = test: as above; format: cell-based, human; conditions: ME-180, 10^−6 M PMA
Description: as §4, §3

Raji = test: as above; format: cell-based, human; conditions: 10^−6 M PMA
Description: as §4, §3

U-937 = test: as above; format: cell-based, human; conditions: U-937, 10^−6 M PMA
Description: as §4, §3

HL-60 = test: as above; format: cell-based, human; conditions: HL-60, 10^−6 M PMA
Description: as §4, §3

In the case of TAPI, the “shedding of soluble p75 and p55 TNF-R” value [1] is listed as “blocks the shedding”.

In the case of `CC(=O)CCCCn1c(=O)c2c(ncn2C)n(C)c1=O` [oxpentifylline], the “course of Crohn's disease” value [2] is listed as “did not alter the course”.

In the case of `CCCCCCC(C)(C)c1cc(O)c2c(c1)OC(C)(C)[C@H]1CC=C(CO)C[C@H]21` [dexanabinol], the “protection against TNF following traumatic brain injury” value (TNF [3]) is listed as “provided protection”.

For `CNC(=O)[C@H](Cc1c[nH]c2ccccc12)NC(=O)[C@@H](CC(=O)NO)CC(C)C` [GM-6001], the “release of TNF” value (TNF [4]) is given as “prevents the release of TNF”.

With `CCCCCCCCCCCCCC(=O)O[C@@H]1[C@@H](C)[C@@]2(O)[C@@H](C=C(CO)C[C@]3(O)C(=O)C(C)=C[C@@H]23)[C@@H]2C(C)(C)[C@]12OC(C)=O` [PMA, phorbol 12-myristate 13-acetate] the “TRRE Activity (U)” value ([5]; PMA 10^−6 M) was 883 U, the “TRRE Activity (U)” value ([5]; PMA 10^−7 M) was 51 U and the TRRE release ([5]; human monocytes, 10^−6 M PMA 30 min, then 2 hours PMA-free) was 883 U/ml. The TRRE induction ([5]; monocytes, 10^−8 M PMA) was “did not induce any TRRE”, the “TRRE produced (FIG. 10A)” value (THP-1 cells [6]; PMA-stimulated THP-1, 1% FCS) was 2,096 U/ml and the “TRRE (U/ml/10^6 cells)” value (THP-1 cells [6]; THP-1, 10^−6 M PMA) was 2,884 U/ml/10^6 cells. The TRRE release (THP-1 cells [6]; THP-1, 10^−6 M PMA 30 min, then 2 hours PMA-free) was 1,304 U/ml, the “TRRE Activity (U/ml)” value (THP-1 cells [6]; THP-1, 10^−6 M PMA 30 min, then 2 hours PMA-free with 1% FCS) was 1,356 U/ml and the “TRRE Activity (U)” value (THP-1 cells [6]; THP-1, PMA 10^−6 M) was 1,304 U. The TRRE released (THP-1 cells [6]; THP-1, after first PMA stimulation, no second PMA, 2 hours and 4 hours) was “no TRRE activity”, the TRRE released (THP-1 cells [6]; THP-1, first stimulation of PMA) was 951 U/ml and the TRRE released (THP-1 cells [6]; THP-1, second PMA stimulation 30 min, additional 2 hours PMA-free) was 1,245 U/ml. For the same compound, the TRRE released (THP-1 cells [6]; THP-1, second PMA stimulation 30 min, additional 4 hours PMA-free) was 1,044 U/ml, the “TRRE produced (FIG. 10A)” value (THP-1 cells [7]; PMA-stimulated THP-1, 0% FCS) was 217 U/ml and the “TRRE Activity (U/ml)” value (THP-1 cells [7]; then 2 hours PMA-free with 0% FCS) was 224 U/ml. The “TRRE Activity (U/ml)” value (THP-1 cells [7]; then 2 hours PMA-free with 10% FCS) was 2,275 U/ml, the TRRE induction (THP-1 cells [7]; THP-1, 10^−8 M PMA) was “did not induce any TRRE” and the “TRRE Activity (U)” value (THP-1 cells [7]; THP-1, PMA 10^−7 M) was 368 U. The “TRRE (U/ml/10^6 cells)” value (MRC-5) was 1,477 U/ml/10^6 cells, the “TRRE (U/ml/10^6 cells)” value (K-562) was 3,356 U/ml/10^6 cells and the “TRRE (U/ml/10^6 cells)” value (ME-180) was 1,694 U/ml/10^6 cells. For the same compound, the “TRRE (U/ml/10^6 cells)” value (Raji) was 2,390 U/ml/10^6 cells, the “TRRE (U/ml/10^6 cells)” value (U-937) was 3,288 U/ml/10^6 cells and the “TRRE (U/ml/10^6 cells)” value (HL-60) was 3,144 U/ml/10^6 cells.
